# Laboratory results as given in patent publication US9957247B2, “SecA inhibitors and methods of making and using thereof” (Georgia State University Research Foundation, Inc., priority 2012, dated 2018).
# Where two headings read alike, the source gives them in different places.
# Experiments:
# [1] = target: EcSecA N68 (Escherichia coli, UniProt P10408); assay: biochemical; format: biochemical, E. coli
# [2] = target: MtbSecA (Mycobacterium tuberculosis, UniProt P9WGP5); assay: cell-based
# [3] = target: T1, SaSecA1 (Staphylococcus aureus, UniProt O06446); assay: cell-based
# T1 sequence (O06446 1-843): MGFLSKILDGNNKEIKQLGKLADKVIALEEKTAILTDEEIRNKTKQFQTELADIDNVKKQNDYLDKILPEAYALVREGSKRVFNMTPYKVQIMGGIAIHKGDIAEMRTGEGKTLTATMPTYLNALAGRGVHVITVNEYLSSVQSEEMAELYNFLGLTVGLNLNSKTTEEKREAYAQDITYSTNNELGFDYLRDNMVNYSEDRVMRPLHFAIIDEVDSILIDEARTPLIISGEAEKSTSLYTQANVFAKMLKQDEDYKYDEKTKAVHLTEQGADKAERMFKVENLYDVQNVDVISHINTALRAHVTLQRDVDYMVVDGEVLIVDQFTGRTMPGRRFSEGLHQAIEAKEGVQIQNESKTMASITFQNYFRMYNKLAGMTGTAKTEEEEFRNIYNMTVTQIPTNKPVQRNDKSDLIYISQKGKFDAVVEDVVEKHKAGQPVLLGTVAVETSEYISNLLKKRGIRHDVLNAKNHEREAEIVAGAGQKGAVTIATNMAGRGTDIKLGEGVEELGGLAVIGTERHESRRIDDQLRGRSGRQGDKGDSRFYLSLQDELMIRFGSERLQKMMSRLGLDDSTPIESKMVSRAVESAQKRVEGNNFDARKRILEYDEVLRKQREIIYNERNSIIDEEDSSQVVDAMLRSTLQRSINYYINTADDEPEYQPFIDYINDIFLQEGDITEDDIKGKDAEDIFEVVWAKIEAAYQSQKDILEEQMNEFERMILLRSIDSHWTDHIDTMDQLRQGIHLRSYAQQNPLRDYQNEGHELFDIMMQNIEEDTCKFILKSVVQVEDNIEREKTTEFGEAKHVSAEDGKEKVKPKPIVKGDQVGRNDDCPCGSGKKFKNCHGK
# [4] = target: T2, EcSecA (Escherichia coli, UniProt P10408); assay: cell-based
# Target sequence in this assay (P10408 whole entry): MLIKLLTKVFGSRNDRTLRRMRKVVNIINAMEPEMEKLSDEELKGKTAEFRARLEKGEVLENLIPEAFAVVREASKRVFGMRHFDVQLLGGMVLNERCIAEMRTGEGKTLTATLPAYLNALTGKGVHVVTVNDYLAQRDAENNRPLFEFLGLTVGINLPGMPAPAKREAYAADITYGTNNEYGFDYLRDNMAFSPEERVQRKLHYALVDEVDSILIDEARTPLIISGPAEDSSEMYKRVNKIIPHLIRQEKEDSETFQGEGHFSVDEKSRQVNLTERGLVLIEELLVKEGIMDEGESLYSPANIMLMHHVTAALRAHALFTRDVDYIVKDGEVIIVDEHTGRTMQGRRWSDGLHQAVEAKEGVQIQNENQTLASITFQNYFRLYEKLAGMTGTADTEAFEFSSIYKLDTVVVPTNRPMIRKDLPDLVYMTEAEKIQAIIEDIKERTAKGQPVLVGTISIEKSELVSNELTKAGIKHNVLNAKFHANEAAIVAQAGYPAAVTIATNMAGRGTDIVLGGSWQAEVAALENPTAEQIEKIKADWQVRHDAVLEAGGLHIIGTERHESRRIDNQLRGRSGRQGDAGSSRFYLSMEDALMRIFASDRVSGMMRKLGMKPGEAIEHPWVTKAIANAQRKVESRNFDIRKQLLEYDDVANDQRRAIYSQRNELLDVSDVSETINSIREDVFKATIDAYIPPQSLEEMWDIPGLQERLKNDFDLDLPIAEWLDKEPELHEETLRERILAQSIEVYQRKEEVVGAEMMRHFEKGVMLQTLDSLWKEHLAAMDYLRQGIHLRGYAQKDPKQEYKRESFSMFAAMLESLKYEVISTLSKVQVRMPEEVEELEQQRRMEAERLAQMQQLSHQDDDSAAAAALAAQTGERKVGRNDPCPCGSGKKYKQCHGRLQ
# [5] = target: T2, EcSecA; assay: biochemical; settings: IC50, Translocation ATPase, Table 1
# Target sequence in this assay (P0AG99 whole entry): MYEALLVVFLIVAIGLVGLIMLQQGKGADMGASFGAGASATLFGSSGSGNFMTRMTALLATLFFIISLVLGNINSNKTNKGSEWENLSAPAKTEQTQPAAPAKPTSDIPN
# Target sequence in this assay (P10408 whole entry): as the sequence (P10408 whole entry) above
# Target sequence in this assay (P0AGA2 whole entry, further chain): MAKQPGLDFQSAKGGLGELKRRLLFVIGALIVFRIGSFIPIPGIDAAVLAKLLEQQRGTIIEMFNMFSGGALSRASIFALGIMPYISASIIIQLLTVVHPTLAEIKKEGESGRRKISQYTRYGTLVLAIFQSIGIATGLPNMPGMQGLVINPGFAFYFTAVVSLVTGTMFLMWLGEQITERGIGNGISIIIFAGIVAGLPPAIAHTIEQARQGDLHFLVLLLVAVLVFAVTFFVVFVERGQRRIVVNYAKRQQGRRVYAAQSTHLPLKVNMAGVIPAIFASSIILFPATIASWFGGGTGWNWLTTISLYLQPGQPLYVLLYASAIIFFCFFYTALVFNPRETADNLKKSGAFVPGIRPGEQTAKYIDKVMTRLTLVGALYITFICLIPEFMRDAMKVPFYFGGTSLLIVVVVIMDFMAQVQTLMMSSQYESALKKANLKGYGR
# Target sequence in this assay (P0AG96 whole entry, further chain): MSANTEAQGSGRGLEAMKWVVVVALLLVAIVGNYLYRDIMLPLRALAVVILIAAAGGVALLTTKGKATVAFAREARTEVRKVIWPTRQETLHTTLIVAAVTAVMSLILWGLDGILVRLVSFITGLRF
# [6] = tested on: S. aureus deletion strains (NorA−, MepA−) and strains (NorA++, MepA++) with over-expressed efflux pumps; assay: Antimicrobial effect with deletion or over expression of efflux pumps in S. aureus
# [7] = tested on: B. anthracis Sterne; assay: microbe, parasite or virus in culture; format: cell-based; settings: Bacillus anthracis, read-out: Bacteriostatic MIC95, B. anthracis Sterne
# [8] = target: T2, EcSecA; assay: biochemical; parameters: species or system E. coli; settings: IC50, Intrinsic ATPase, Table 1, full-length EcSecA
# Target sequence in this assay (P10408 whole entry): as the sequence (P10408 whole entry) above
# [9] = target: T3, BsSecA (Bacillus subtilis, UniProt P28366); assay: biochemical; format: biochemical, B. subtilis
# [10] = tested on: S. aureus 8325-4; assay: Bacteriostatic effect, S. aureus 8325-4 (WT); settings: Staphylococcus aureus, 83254, read-out: Bacteriostatic effect, MIC, WT 8325-4
# [11] = tested on: S. aureus Mu50; assay: Bacteriostatic effect, S. aureus Mu50; settings: for MIC: Staphylococcus aureus
# [12] = target: BaSecA1 (Bacillus anthracis, UniProt Q81X26); assay: cell-based; settings: IC50, Ion Channel activity, BGaSecA 1
# [13] = target: BsSecA2; settings: read-out: IC50, Intrinsic ATPase, BsSecA2; Table 1
# [14] = target: T2, EcSecA; assay: biochemical; settings: IC50, Protein Translocation, Table 1
# Target sequence in this assay (P0AG99 whole entry): as the sequence (P0AG99 whole entry) above
# Target sequence in this assay (P10408 whole entry): as the sequence (P10408 whole entry) above
# Target sequence in this assay (P0AGA2 whole entry, further chain): as the sequence (P0AGA2 whole entry, further chain) above
# Target sequence in this assay (P0AG96 whole entry, further chain): as the sequence (P0AG96 whole entry, further chain) above
# [15] = target: PaSecA (Pseudomonas aeruginosa, UniProt Q9LCT3); assay: cell-based; format: cell-based; settings: IC50, Ion Channel activity, PASecA, Table 1
# [16] = target: MsSecA (Mycolicibacterium smegmatis, UniProt P71533); assay: SecA-liposomes ion-channel activity in oocytes, MsSecA; format: cell-based; settings: Table 1
# [17] = tested on: S. aureus N315; assay: Bacteriostatic effect, S. aureus N315; settings: Staphylococcus aureus, N315, read-out: Bacteriostatic effect, MIC, S. aureus N315
# [18] = tested on: S. pyogenes, MGAS5005; assay: MIC95, S. pyogenes MGAS5005; format: cell-based; settings: Streptococcus pyogenes, MGAS5005; read-out: MIC95, S. pyogenes MGAS5005
# [19] = tested on: S. aureus 6538; assay: Bacteriostatic effect, S. aureus 6538; settings: Staphylococcus aureus, 6538, read-out: Bacteriostatic effect, MIC, S. aureus 6538
# [20] = tested on: secretion of α-hemolysin, enterotoxin B and TSST-1 by S. aureus Mu50; format: cell-based
# [21] = target: T3, BsSecA; assay: cell-based; parameters: species or system B. subtilis; settings: IC50, Ion Channel activity, BsSecA, Table 1
# [22] = target: SpSecA (Streptococcus pyogenes, UniProt Q99Y96); format: cell-based; settings: read-out: IC50, Ion Channel activity, SpSecA
# [23] = tested on: S. aureus 6538; assay: Bactericidal effect, S. aureus 6538; settings: 9 μg/ml, 1 hour at 37° C., FIG. 5
# [24] = tested on: S. aureus Mu3; assay: Bacteriostatic effect, S. aureus Mu3; settings: Staphylococcus aureus, MU3, read-out: Bacteriostatic effect, MIC, S. aureus Mu3
# T3 sequence (P28366 whole entry): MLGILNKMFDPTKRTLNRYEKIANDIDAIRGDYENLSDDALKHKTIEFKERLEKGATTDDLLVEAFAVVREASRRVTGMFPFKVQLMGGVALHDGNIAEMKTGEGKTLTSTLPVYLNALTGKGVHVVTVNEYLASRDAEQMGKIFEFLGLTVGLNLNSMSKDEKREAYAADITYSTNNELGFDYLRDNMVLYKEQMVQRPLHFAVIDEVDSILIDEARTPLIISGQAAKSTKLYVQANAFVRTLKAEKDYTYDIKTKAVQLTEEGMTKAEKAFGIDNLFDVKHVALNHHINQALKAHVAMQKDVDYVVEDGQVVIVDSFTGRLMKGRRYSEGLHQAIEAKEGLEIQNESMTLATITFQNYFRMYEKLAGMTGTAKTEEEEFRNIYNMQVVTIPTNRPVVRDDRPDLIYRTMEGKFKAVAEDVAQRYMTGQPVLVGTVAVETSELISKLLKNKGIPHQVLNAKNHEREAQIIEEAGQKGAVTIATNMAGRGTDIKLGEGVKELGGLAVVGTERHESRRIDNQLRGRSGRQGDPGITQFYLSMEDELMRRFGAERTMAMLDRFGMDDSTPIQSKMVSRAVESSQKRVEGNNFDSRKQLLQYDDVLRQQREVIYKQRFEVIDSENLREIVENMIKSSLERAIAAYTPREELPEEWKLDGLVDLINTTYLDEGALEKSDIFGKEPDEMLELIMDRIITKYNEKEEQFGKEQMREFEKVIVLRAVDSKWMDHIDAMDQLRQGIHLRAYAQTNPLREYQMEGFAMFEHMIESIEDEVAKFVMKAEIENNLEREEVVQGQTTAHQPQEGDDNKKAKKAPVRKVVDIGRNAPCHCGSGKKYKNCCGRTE
# Sequence of PaSecA (Q9LCT3 whole entry): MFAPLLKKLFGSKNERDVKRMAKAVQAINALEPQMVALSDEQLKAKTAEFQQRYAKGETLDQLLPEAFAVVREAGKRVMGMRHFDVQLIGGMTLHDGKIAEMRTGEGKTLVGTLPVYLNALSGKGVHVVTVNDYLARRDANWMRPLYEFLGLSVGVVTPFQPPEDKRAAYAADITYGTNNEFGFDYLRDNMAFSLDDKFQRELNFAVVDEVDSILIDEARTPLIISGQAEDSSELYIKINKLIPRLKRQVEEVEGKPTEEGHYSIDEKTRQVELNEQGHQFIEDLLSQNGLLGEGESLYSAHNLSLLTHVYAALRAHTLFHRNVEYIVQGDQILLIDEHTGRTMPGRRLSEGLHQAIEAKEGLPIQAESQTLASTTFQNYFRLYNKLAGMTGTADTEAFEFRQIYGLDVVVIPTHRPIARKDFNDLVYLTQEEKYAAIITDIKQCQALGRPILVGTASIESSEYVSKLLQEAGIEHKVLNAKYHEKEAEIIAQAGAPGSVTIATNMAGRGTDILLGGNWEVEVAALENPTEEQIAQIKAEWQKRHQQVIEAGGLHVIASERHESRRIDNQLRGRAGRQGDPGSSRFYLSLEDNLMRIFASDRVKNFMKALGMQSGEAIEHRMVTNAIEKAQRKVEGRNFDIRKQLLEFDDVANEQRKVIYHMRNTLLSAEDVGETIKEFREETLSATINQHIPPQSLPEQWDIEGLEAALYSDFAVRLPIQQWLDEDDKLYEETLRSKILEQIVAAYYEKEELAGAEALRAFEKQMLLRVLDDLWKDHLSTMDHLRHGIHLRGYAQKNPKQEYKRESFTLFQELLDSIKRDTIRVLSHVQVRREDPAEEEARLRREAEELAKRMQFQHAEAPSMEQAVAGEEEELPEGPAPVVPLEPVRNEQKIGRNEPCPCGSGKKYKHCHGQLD
# Sequence of EcSecA N68 (P10408 1-610): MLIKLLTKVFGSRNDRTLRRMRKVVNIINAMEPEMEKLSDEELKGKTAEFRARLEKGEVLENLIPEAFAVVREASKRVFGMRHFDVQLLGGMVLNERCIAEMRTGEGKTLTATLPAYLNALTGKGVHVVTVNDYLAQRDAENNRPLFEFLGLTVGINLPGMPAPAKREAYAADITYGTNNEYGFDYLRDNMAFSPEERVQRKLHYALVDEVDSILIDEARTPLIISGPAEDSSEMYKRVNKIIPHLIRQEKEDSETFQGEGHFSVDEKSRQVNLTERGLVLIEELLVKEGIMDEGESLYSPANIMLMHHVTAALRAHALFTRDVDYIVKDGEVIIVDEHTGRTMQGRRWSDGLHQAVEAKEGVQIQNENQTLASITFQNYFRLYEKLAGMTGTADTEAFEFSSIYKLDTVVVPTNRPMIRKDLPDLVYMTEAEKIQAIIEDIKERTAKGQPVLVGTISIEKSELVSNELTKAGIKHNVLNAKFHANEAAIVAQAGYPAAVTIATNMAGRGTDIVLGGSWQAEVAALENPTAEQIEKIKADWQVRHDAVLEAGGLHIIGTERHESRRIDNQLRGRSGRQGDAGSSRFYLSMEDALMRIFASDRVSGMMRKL
# Sequence of SpSecA (Q99Y96 whole entry): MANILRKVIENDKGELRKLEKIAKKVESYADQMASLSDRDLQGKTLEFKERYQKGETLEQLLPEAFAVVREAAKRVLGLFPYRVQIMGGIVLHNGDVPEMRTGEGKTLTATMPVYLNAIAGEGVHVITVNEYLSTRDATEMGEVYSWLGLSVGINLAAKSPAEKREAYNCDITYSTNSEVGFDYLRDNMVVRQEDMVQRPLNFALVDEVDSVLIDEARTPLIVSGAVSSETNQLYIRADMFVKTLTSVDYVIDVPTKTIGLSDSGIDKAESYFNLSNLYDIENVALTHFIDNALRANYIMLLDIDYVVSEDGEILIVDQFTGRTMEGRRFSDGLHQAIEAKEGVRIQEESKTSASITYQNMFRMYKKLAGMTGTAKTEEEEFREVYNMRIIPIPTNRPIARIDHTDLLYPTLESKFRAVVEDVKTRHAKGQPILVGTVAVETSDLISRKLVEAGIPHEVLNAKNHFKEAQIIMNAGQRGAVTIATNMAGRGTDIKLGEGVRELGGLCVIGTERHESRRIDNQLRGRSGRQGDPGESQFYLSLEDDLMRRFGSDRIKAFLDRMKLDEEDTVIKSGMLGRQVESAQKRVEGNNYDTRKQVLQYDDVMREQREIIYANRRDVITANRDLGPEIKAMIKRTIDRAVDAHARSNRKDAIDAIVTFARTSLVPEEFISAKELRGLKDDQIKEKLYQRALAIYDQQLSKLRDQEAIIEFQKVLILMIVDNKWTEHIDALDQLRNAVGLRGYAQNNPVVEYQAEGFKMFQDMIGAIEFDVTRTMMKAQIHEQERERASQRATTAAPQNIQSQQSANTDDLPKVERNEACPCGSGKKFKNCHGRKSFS
structure (smiles),measurement,setting,value
CCCCCCC1c2ccc(O)cc2Oc2cc(O)ccc21 [SCA-50],IC50,[1],4 µM
same,IC50,[2],3 µM
same,IC50,[3],1.1 µM
same,IC50,"[3]; IC50, Ion-channel activity, SaSecA1, Table 7",1.1 µM
same,IC50,[4],2.3 µM
same,IC50,[5],60 µM
same,Change of MIC on overexpression or deletion of NorA or MepA,[6],did not significantly change
same,MIC,[7],1.7 mg/L
same,IC50,[8],60 µM
same,IC50,[9],33 µM
same,MIC,[10],3.7 mg/L
same,"MIC fold less than the MIC of ampicillin, kanamyin, erythromycin, and rifampicin",[11]; S. aureus Mu50,250 fold
same,MIC,"[11]; MU50, read-out: Bacteriostatic MIC95, S. aureus Mu50, Table 2",2.4 mg/L
same,MIC,"[11]; MU50, read-out: Bacteriostatic effect MIC, S. aureus Mu50, Table 10 and Example 4",4 mg/L
same,MIC,"[11]; MU50, read-out: Bacteriostatic effect, MIC, S. aureus Mu50, Table 8",3.7 mg/L
same,MIC,"[11]; MU50, read-out: MIC95 against drug resistant S. aureus Mu50",2.4 µM
same,"Bacteriostatic effect MIC, S. aureus Mu50",[11]; Table 10 and text of Example 4,3.7 mg/L
same,IC50,[12],1 µM
same,IC50,[13],20 µM
same,IC50,[14],38 µM
same,IC50,[15],3 µM
same,IC50,[16],2.5 µM
same,MIC,[17],3.7 mg/L
same,MIC,[18],6.25 µM
same,MIC,[19],3.7 mg/L
same,"Amount of α-hemolysin, enterotoxin B, and TSST-1 in the supernatant",[20],significantly decreased
same,IC50,[21],2.5 µM
same,IC50,[22],1.9 µM
same,"Bactericidal activity, log numbers killed, S. aureus 6538",[23],2 log numbers
same,MIC,[24],3.7 mg/L
